Each structure is given as a SMILES string. Where only a bound is given, the exact number is not on record here.

Series [1] can be described thus: Metabolic stability in human liver microsomes assessed as hepatic clearance at 1 uM preincubated for 5 mins followed by NADPH addition measured upto 45 mins by LC-MS/MS analysis. The format is ADME, Microsome. The conditions noted are these: time < 50 min.
Series [2] is described as follows: Cytotoxicity against human Huh-7 cells assessed as cell viability by Cell Titer Glo assay. The format is toxicity, cell-based.
Series [3] can be described thus: Metabolic stability in human liver microsomes assessed as half life at 1 uM preincubated for 5 mins followed by NADPH addition measured upto 45 mins by LC-MS/MS analysis. The class given is ADME, Microsome. Conditions: time < 50 min. A general note: Microsomes from liver hold many membrane-bound enzymes, among them those of drug oxidation.
The nature of series [4]: Metabolic stability in mouse liver microsomes assessed as half life at 1 uM preincubated for 5 mins followed by NADPH addition measured upto 45 mins by LC-MS/MS analysis. The class given is ADME, Microsome. The conditions noted are these: time < 50 min.
Series [5] relates to SARS-CoV-2. In words: Antiviral activity against SARS-CoV-2 infected in human Huh-7 cells transfected with viral replicon incubated for 1 day. Conditions: Severe acute respiratory syndrome coronavirus 2, Huh-7, 24 h; for EC90: time 1 day. The class given is functional, organism-based.
Series [6] has as its target Replicase polyprotein 1ab (Severe acute respiratory syndrome coronavirus 2, UniProt P0DTD1). In words: Inhibition of 6His-tagged SARS-CoV-2 3CLpro using Dabcyl-KNSTLQSGLRKE-Edans as substrate preincubated for 60 mins followed by substrate addition by FRET assay.
Series [7] is described as follows: Metabolic stability in mouse liver microsomes assessed as hepatic clearance at 1 uM preincubated for 5 mins followed by NADPH addition measured upto 45 mins by LC-MS/MS analysis. The format is ADME, Microsome. Conditions: time < 50 min.
The nature of series [8]: Half life in ICR mouse at 10 mg/kg, iv measured for 24 hrs by LC-MS/MS analysis. The format is ADME, organism-based. Conditions: in vivo.
Series [9] is described as follows: Oral bioavailability in ICR mouse at 20 mg/kg measured for 24 hrs by LC-MS/MS analysis. The format is ADME, organism-based. The conditions noted are these: in vivo.
Series [10] in a line: AUC (0 to infinity) in ICR mouse at 20 mg/kg, po measured for 24 hrs by LC-MS/MS analysis. The format is ADME, organism-based. The conditions noted are these: in vivo.
Series [11] can be described thus: AUC (0 to t) in ICR mouse at 20 mg/kg, po measured for 24 hrs by LC-MS/MS analysis. The conditions noted are these: in vivo. The class given is ADME, organism-based.
The nature of series [12]: Cmax in ICR mouse at 20 mg/kg, po measured for 24 hrs by LC-MS/MS analysis. The format is ADME, organism-based. The conditions noted are these: in vivo.
A short description of series [13]: AUC (0 to infinity) in ICR mouse at 10 mg/kg, iv measured for 24 hrs by LC-MS/MS analysis. The format is ADME, organism-based. Conditions: in vivo.
A short description of series [14]: AUC (0 to t) in ICR mouse at 10 mg/kg, iv measured for 24 hrs by LC-MS/MS analysis. The format is ADME, organism-based. The conditions noted are these: in vivo.
Series [15] in a line: Half life in ICR mouse at 20 mg/kg, po measured for 24 hrs by LC-MS/MS analysis. The class given is ADME, organism-based. Conditions: in vivo.
The target of series [16] is Cathepsin B (Homo sapiens, UniProt P07858). In words: Inhibition of CTSB (unknown origin) incubated for 2 hrs.
Series [17] deals with Procathepsin L (Homo sapiens, UniProt P07711). In words: Inhibition of CTSL (unknown origin) incubated for 2 hrs.
Chain of Procathepsin L (P07711 whole entry): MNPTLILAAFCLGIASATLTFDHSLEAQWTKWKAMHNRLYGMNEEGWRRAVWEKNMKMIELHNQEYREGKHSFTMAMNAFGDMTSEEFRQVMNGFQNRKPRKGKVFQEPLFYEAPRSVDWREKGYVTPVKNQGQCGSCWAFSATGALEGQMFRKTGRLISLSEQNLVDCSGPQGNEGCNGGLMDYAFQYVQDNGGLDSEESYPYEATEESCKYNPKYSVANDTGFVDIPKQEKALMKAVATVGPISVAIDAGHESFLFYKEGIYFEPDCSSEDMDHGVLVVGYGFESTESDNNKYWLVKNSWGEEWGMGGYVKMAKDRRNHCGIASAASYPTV

Regarding `CC(C)(C)[C@H](NC(=O)C(F)(F)F)C(=O)N1C[C@H]2[C@@H]([C@H]1C(=O)N[C@H](C#N)C[C@@H]1CCNC1=O)C2(C)C`, the CLhep predicted at 1 µM in series [1] was 12.7 mL/min/kg. The CC50 (commonly the concentration that lowers cell viability or growth by half) in series [2] is over 5000 nM. For the same compound, the results for the half-life at 1 µM in series [3] and in series [4] were 0.91 h and 1.17 h, respectively. Moreover, it took 186 nM to reach the 90% level in [5] (EC90).
Take `N#C[C@@H]1C[C@@]2(CN1C(=O)[C@H](CS(=O)(=O)Cc1ccccc1)NC(=O)[C@@H](NC(=O)C(F)(F)F)C1CC1)C(=O)Nc1ccccc12`: in series [6], the IC50 (as a rule, the concentration that gives 50% inhibition) was 1300 nM. In other words, the single-digit micromolar range.
On to `CN(C(=O)[C@@H](NC(=O)C(F)(F)F)C1CC1)[C@@H](CSCc1ccccc1)C(=O)N1C[C@]2(C[C@H]1C#N)C(=O)Nc1ccccc12`, for which the CLhep predicted at 1 µM in [7] is 84.9 mL/min/kg. In addition, the half-life (in general, the time in which the quantity being followed falls by half) at 1 µM in series [4] was 0.0617 h. Also, the IC50 in series [6] worked out at 40 nM.
For `CN(C(=O)[C@@H](NC(=O)C(C)(C)F)C1CC1)[C@@H](CSCc1ccccc1)C(=O)N1C[C@]2(C[C@H]1C#N)C(=O)Nc1ccccc12`, in that order: 85.1 mL/min/kg, 0.06 h and 43 nM.
Regarding `N#C[C@@H]1C[C@@]2(CN1C(=O)[C@@H](CSCc1ccc(F)cc1)NC(=O)[C@@H](NC(=O)C(F)(F)F)C1CC1)C(=O)Nc1ccccc12`, the CLhep predicted at 1 µM in series [1] is 8.8 mL/min/kg; in [7], 36.8 mL/min/kg. Further, the CC50 in series [2] is over 5000 nM. The half-life is 0.47 h in [8] and 1.05 h in [15]. The half-life at 1 µM was 1.93 h in series [3] and 1.5 h in [4]. For the same compound, in series [5], the EC50 (as a rule, the concentration needed to bring the measured effect to its halfway point) was found to be 31 nM. Further, in [5], the EC90 (commonly the concentration at which the effect reaches the 90% level) was 286 nM. Besides, in series [9], the bioavailability (commonly dose-corrected exposure relative to a reference, in per cent) worked out at 22.9%. For the same compound, the figures for the AUC(0-inf) in [10] and in [13] were 972 ng·h/mL and 2130 ng·h/mL, respectively. Besides, the AUC(0-t) – broadly, the area under the concentration-time curve up to a stated or last time point – at 24 h in [11] was found to be 970 ng·h/mL; in series [14], 2120 ng·h/mL. Besides, in series [12], the Cmax (usually the peak of the concentration-time curve) came to 1530 ng/mL. The same compound gave an IC50 in [6] of 25 nM.
In series [6], `CC1(C)[C@@H]2[C@@H](C(=O)N3C[C@]4(C[C@H]3C#N)C(=O)Nc3ccccc34)N(C(=O)[C@@H](NC(=O)C(F)(F)F)C3CC3)C[C@@H]21` returned an IC50 of 886 nM.
`CN(C(=O)[C@@H](NC(=O)C(F)(F)F)C1CC1)[C@@H](Cc1ccc(F)cc1)C(=O)N1C[C@]2(C[C@H]1C#N)C(=O)Nc1ccccc12`: the CLhep predicted at 1 µM in series [1] was 18.3 mL/min/kg; in [7], 40.8 mL/min/kg. The CC50 in [2] was over 5000 nM. Besides, the half-life in [8] is 1.99 h; in series [15], 2.58 h. For the same compound, the half-life at 1 µM in series [3] came to 0.207 h; in [4], 1.25 h. The compound further had an EC50 in [5] of 5 nM. It took 39 nM to reach the 90% level in series [5] (EC90). The results for the IC50 in series [16], in [17] and in [6] were 20700 nM, 20200 nM and 21 nM, respectively. For the same compound, in series [9], the bioavailability worked out at 16.2%. Also, the figures for the AUC(0-inf) in series [10] and in series [13] were 1110 ng·h/mL and 3420 ng·h/mL, respectively. The AUC(0-t) at 24 h in series [11] was 1110 ng·h/mL; in series [14], 3420 ng·h/mL. This compound came in with a Cmax in series [12] of 1360 ng/mL.
Compound `CN(C(=O)[C@@H](NC(=O)OC(C)(C)C)C1CC1)[C@H](CSCc1ccccc1)C(=O)N1C[C@]2(C[C@H]1C#N)C(=O)Nc1ccccc12` gave an IC50 in [6] of 674 nM. That is a sub-micromolar value.
Compound `CC(C)(C)OC(=O)N[C@H](C(=O)N[C@@H](CSCc1ccccc1)C(=O)N1C[C@]2(C[C@H]1C#N)C(=O)Nc1ccccc12)C1CC1` gave an IC50 in [6] of 47 nM.
In the case of `CN(C(=O)[C@@H](NC(=O)C(C)(C)F)C1CC1)[C@@H](COCc1ccccc1)C(=O)N1C[C@]2(C[C@H]1C#N)C(=O)Nc1ccccc12`, the CLhep predicted at 1 µM in [7] is 83.6 mL/min/kg. The half-life at 1 µM in series [4] turned out to be 0.0783 h. Besides, the IC50 in series [6] was 53 nM.
In series [6], `CC(C)(F)C(=O)N[C@H](C(=O)N[C@@H](CSCc1ccccc1)C(=O)N1C[C@]2(C[C@H]1C#N)C(=O)Nc1ccccc12)C1CC1` yielded a half-inhibitory concentration (IC50) of 97 nM. This counts as double-digit nanomolar.
In series [6], `CC(C)(F)C(=O)N[C@H](C(=O)N[C@@H](COCc1ccccc1)C(=O)N1C[C@]2(C[C@H]1C#N)C(=O)Nc1ccccc12)C1CC1` had an IC50 of 80 nM.
On the same count and under the same terms, with `CN(C(=O)[C@@H](NC(=O)C(F)(F)F)C1CC1)[C@@H](CS(=O)(=O)Cc1ccccc1)C(=O)N1C[C@]2(C[C@H]1C#N)C(=O)Nc1ccccc12` the figure was 94 nM.
In turn, `N#C[C@@H]1C[C@@]2(CN1C(=O)[C@H](CSCc1ccccc1)NC(=O)[C@@H](NC(=O)C(F)(F)F)C1CC1)C(=O)Nc1ccccc12` showed an IC50 in series [6] of 298 nM.
For `CC(C)C[C@H](NC(=O)[C@H]1C[C@@H]1C(=O)O)C(=O)NCCCCNC(=N)N`, the IC50 in series [16] stood at 41.4 nM; in series [17], 56.2 nM.
For `CN(C(=O)[C@@H](NC(=O)OC(C)(C)C)C1CC1)[C@@H](CSCc1ccccc1)C(=O)N1C[C@]2(C[C@H]1C#N)C(=O)Nc1ccccc12`, the IC50 in series [6] is 38 nM.
Take `CC(C)(C)[C@H](NC(=O)C(F)(F)F)C(=O)N1C[C@H]2[C@@H]([C@H]1C(=O)N1C[C@]3(CC1C#N)C(=O)Nc1ccccc13)C2(C)C` (stereo not given in full): the IC50 in series [6] came to 248 nM.
